Target: T1, Ode-UNC-29:Ode-UNC-63:Ode-UNC-38 (Oesophagostomum dentatum, UniProt E5KIX9+V5J2B2+V5J336)
T1 construct: co-injected with Haemonchus contortus ancillary factors Hco-ric-3, Hco-unc-50, Hco-unc-74; clones from earlier work of the authors
T1 sequence (V5J2B2 21-497): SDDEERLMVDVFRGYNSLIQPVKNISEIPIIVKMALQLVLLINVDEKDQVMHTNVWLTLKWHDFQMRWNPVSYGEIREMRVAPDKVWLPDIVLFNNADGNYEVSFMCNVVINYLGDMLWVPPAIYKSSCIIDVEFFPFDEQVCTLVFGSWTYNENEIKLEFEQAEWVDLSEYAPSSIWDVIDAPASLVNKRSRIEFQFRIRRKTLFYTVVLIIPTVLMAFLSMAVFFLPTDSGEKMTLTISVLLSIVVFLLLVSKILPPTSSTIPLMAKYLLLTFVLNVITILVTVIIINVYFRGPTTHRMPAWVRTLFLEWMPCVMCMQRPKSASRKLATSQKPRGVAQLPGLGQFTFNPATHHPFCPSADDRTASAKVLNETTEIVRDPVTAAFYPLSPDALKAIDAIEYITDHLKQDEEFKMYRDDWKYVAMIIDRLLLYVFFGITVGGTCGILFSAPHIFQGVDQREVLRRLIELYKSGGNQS
T1 sequence (E5KIX9 22-507): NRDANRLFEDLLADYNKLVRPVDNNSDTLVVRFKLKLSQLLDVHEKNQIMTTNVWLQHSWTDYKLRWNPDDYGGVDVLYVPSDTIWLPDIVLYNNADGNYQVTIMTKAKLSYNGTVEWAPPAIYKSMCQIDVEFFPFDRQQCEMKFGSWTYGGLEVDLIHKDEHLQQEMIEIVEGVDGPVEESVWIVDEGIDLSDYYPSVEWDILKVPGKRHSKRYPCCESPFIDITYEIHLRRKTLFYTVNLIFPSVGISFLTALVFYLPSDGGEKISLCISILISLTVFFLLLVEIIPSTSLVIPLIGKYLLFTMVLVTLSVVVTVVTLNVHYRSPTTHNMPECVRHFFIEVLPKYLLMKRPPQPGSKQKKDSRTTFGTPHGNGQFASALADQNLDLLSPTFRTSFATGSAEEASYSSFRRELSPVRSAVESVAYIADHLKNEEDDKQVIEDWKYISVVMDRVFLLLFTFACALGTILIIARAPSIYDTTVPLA
T1 sequence (V5J336 21-507): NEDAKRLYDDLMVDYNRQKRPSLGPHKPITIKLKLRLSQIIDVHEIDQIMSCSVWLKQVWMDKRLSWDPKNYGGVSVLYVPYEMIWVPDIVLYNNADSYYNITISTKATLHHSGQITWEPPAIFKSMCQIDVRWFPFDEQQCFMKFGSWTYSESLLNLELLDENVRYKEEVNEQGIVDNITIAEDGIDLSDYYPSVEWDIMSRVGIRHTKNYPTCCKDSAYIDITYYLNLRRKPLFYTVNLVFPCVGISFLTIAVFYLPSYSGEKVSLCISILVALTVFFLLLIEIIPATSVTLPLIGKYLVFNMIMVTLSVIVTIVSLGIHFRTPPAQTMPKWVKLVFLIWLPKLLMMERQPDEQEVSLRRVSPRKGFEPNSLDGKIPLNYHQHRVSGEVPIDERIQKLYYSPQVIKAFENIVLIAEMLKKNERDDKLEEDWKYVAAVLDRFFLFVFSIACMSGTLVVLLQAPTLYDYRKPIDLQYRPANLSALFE
Assay: two-electrode voltage clamp, Xenopus oocytes, agonist concentration-response, Hill fit
Type: cell-based

Structure (SMILES) | EC50
CN1CCCN=C1/C=C/c1cccs1 [pyrantel] | 0.4 µM
CC(=O)OCC[N+](C)(C)C [acetylcholine] | 13 ± 1.6 µM

Reference: paper PMC4709073, “Curiouser and Curiouser: The Macrocyclic Lactone, Abamectin, Is also a Potent Inhibitor of Pyrantel/Tribendimidine Nicotinic Acetylcholine Receptors of Gastro-Intestinal Worms” (PLoS ONE, 2016)
